Laboratory results taken from patent US20260207578A1, “COMPOUND BASED ON SULFUR/OXYGEN SUBSTITUTED GLUTARIMIDE-BASED ISOINDOLINONE SKELETON AND USE THEREOF” (Gluetacs Therapeutics (Shanghai) Co., LTD., priority 2022, published 2026).

What was measured:
[1] = biological target: T1, human Cereblon WT GST-tagged protein (Homo sapiens, UniProt Q96SW2); assay: CRBN-binding affinity, HTRF (CEREBLON BINDING kit); conditions: displacement of Thalidomide-Re reagent, 3 hours at room temperature
T1 construct: purchased CISBIO 64BDCRBNPEH
T1 sequence (Q96SW2 whole entry): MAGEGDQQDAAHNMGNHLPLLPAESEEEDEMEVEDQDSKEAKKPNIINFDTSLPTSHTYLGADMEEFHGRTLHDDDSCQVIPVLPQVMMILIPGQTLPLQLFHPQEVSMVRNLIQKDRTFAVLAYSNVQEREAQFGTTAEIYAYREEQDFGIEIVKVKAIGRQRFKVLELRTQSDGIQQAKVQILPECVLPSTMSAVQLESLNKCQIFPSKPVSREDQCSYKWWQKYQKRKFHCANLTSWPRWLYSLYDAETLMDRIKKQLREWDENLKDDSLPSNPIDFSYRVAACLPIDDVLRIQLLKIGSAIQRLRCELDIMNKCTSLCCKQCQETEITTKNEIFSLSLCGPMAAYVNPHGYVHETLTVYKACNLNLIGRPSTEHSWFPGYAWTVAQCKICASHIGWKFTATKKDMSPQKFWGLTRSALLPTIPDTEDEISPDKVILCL
Procedure: The CEREBLON BINDING kits (specification: 10,000 tests; product number: Catalog #64BDCRBNPEH; CISBIO company) was used to determine the CRBN binding ability of the compounds to be tested through a HTRF method (homogeneous time-resolved fluorescence). The specific methods are as follows: • 1. […] Then, 2.5 μL of human Cereblon WT GST-tagged protein solution was added to each well. Finally, 5 μL of the thoroughly mixed Thalidomide-Re reagent and GST Eu antibody working solution were added to each of the aforementioned wells. […] The blank control wells were sequentially added with 2.5 μL of diluent #9 (1×) solution, 2.5 μL of PROTAC binding buffer, and 5 μL of thoroughly mixed Thalidomide-Re reagent and GST Eu antibody working solution. • 4.
OD 620 nmcompound is the absorbance value of each well of the compounds to be tested of the present disclosure at an emission wavelength of 620 nm. […] OD 620 nmcontrol is the absorbance value of the blank control well at an emission wavelength of 620 nm. […] OD 620 nmStd0 is the absorbance value of the solvent control well at an emission wavelength of 620 nm.

[2] = biological target: T2, IKZF2 (Homo sapiens, UniProt Q96SW2+Q9UKS7); assay: Western-blot assay, substrate protein in hPBMCs; assay type: cell-based; conditions: hPBMC cells, 24 hours, tested at 50 nM and 500 nM, table does not say which
T2 construct: endogenous in cells; host or cells: human PBMCs (Milecell Biotechnologies)
T2 sequence (Q9UKS7 whole entry): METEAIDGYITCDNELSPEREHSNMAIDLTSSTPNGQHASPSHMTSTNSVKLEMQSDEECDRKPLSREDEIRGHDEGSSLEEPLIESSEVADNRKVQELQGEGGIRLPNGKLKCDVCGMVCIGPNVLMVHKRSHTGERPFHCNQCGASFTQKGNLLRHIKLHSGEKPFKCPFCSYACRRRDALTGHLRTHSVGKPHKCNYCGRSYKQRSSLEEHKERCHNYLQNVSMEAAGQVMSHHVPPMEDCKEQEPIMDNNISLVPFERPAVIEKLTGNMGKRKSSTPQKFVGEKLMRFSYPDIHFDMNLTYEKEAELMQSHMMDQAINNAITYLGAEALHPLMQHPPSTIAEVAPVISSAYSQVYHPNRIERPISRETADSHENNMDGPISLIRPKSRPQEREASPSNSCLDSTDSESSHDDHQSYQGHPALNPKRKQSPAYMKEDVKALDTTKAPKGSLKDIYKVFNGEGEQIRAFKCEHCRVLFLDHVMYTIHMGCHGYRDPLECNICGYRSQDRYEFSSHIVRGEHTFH
T2 sequence (Q96SW2 whole entry): as the sequence (Q96SW2 whole entry) above
T2 sequence (Q16531 whole entry partner): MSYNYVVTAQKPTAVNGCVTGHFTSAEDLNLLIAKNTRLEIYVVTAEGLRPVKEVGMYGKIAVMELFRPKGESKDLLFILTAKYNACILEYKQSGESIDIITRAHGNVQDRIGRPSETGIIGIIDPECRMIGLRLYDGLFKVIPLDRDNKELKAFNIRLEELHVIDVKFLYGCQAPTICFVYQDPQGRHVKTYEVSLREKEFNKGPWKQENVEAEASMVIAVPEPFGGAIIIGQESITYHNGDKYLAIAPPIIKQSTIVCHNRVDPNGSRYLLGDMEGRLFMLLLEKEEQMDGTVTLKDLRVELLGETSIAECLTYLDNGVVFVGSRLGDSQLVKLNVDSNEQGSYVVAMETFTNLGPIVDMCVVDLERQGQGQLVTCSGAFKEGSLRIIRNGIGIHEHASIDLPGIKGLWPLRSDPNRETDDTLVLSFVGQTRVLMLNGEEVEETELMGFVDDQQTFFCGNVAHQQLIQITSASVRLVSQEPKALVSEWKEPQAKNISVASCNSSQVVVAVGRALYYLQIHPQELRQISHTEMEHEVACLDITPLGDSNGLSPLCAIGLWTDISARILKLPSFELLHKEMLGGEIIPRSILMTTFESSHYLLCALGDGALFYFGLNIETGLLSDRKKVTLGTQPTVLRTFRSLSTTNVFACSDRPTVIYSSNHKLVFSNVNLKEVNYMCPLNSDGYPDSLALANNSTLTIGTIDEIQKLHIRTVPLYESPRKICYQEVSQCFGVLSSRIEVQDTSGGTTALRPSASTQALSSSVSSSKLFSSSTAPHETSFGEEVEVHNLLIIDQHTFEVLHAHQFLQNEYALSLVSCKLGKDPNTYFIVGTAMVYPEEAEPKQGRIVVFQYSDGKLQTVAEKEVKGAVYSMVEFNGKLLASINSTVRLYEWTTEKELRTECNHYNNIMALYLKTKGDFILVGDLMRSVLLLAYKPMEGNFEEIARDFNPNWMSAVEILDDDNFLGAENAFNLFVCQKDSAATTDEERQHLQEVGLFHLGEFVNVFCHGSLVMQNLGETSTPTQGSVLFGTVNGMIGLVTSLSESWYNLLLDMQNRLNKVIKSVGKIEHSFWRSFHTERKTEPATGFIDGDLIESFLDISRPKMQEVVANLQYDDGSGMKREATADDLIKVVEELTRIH
Procedure: (§1) The effect of the compounds of the present disclosure on the expression of target proteins in cells was detected using conventional Western blot analysis.
(§2) Human peripheral blood mononuclear cells (hPBMCs) at a density of 1×10^6 cells/mL were thawed according to the PBMC Recovery Protocol (Milecell Biotechnologies Inc, Shanghai).
(§3) After 24 hours of compounds treatment, cells were harvested and lysed in RIPA protein lysate containing phosphatase inhibitors on ice for 30-60 min, followed by centrifugation. The supernatant was aspirated as the extracted total cell protein. The protein concentration of the supernatant was determined using the conventional BCA (Bicinchoninic Acid) assay. The supernatant was then mixed with 4× SDS sample loading buffer, denatured at 95° C. for 5 minutes, and then subjected to SDS-PAGE electrophoresis on a polyacrylamide gel. Proteins were then transferred to a nitrocellulose (NC) membrane, blocked at room temperature for 1-2 h, and processed for antibody incubation and detection according to the manufacturer's instructions (Cell Signaling Technology).
(§4) Half-Maximal Degradation Concentration value (the drug concentration required for degrading proteins by 50%, abbreviated as DC50) reads method: comparing the grayscale values of Western blot bands from drug-treated samples with those from blank DMSO-treated controls, and identifying the drug concentration range at which the grayscale value is half that of the DMSO-treated control bands.
(§5) DC50 values can be calculated using ImageJ software to measure grayscale values of Western blot bands from drug-treated samples. The concentration-response curve is fitted to estimate the drug concentration corresponding to half the grayscale value.
(§6) Target protein remaining (%) refers to the percentage of target protein remaining in hPBMC cells after treatment with protein degrader compounds.
(§7) Calculation method for protein remaining (%): Use ImageJ software to measure grayscale values of Western blot bands from drug (protein degrader)-treated samples. The grayscale value of drug-treated bands is divided by that of internal control protein bands, and the resulting quotient is normalized to obtain the relative percentage of remaining target protein after protein degrader treatment.
(§8) Target protein degradation rate (%)=100%−target protein remaining (%).

[3] = biological target: T3, Wee1 (Homo sapiens, UniProt P30291+Q96SW2); assay: Western-blot assay, substrate protein in hPBMCs; assay type: cell-based; conditions: hPBMC cells, 24 hours, tested at 50 nM and 500 nM, table does not say which
T3 construct: endogenous in cells; host or cells: human PBMCs (Milecell Biotechnologies)
T3 sequence (P30291 whole entry): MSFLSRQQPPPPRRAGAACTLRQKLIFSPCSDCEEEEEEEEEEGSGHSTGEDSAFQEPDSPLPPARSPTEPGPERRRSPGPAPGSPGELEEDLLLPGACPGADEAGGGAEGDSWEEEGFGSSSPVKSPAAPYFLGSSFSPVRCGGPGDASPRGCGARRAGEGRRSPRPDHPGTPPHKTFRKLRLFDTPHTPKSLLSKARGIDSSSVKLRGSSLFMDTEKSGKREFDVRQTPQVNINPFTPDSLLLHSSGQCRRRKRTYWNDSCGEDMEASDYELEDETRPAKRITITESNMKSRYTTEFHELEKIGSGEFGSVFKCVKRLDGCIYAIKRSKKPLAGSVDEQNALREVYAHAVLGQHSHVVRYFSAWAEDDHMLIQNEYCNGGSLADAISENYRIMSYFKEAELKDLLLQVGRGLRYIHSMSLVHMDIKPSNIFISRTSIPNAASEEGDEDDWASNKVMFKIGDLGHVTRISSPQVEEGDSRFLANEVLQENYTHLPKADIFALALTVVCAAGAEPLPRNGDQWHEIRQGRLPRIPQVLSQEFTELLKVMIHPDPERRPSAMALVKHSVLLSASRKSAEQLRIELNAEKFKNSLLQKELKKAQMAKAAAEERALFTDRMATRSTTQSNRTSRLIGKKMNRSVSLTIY
T3 sequence (Q96SW2 whole entry): as the sequence (Q96SW2 whole entry) above
T3 sequence (Q16531 whole entry partner): as the sequence (Q16531 whole entry partner) above
Procedure: as §1, §2, §3, §4, §5, §6, §7, §8

[4] = biological target: T4, GSPT1 (Homo sapiens, UniProt P15170+Q96SW2); assay: Western-blot assay, substrate protein in hPBMCs; assay type: cell-based; conditions: hPBMC cells, 24 hours, tested at 50 nM and 500 nM, table does not say which
T4 construct: endogenous in cells; host or cells: human PBMCs (Milecell Biotechnologies)
T4 sequence (P15170 whole entry): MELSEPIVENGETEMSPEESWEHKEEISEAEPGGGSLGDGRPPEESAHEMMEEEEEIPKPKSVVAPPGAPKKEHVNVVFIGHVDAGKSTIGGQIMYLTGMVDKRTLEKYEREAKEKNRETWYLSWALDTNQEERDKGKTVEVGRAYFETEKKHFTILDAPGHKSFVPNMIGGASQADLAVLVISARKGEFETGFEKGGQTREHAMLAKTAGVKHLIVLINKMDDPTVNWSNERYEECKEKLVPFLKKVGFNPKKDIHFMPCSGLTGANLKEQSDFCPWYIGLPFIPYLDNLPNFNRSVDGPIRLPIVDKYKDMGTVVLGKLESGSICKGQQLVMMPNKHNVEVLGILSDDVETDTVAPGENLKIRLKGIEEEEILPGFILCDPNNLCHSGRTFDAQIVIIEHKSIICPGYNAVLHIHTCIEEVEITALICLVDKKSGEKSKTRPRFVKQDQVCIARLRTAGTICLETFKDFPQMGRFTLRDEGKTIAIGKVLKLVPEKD
T4 sequence (Q96SW2 whole entry): as the sequence (Q96SW2 whole entry) above
T4 sequence (Q16531 whole entry partner): as the sequence (Q16531 whole entry partner) above
Procedure: as §1, §2, §3, §4, §5, §6, §7, §8

[5] = biological target: T5, CK1α (Homo sapiens, UniProt P48729+Q96SW2); assay: Western-blot assay, substrate protein in hPBMCs; assay type: cell-based; conditions: hPBMC cells, 24 hours, tested at 50 nM and 500 nM, table does not say which
T5 construct: endogenous in cells; host or cells: human PBMCs (Milecell Biotechnologies)
T5 sequence (P48729 whole entry): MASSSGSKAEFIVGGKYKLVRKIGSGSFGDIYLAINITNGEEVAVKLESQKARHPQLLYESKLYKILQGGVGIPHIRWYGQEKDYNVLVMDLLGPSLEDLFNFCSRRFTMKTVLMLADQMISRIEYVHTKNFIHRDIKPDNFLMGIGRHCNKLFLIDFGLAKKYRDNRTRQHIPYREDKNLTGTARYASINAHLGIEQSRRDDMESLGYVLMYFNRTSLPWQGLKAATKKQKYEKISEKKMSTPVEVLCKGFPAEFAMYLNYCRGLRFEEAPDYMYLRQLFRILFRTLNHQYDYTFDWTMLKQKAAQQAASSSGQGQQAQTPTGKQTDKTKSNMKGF
T5 sequence (Q96SW2 whole entry): as the sequence (Q96SW2 whole entry) above
T5 sequence (Q16531 whole entry partner): as the sequence (Q16531 whole entry partner) above
Procedure: as §1, §2, §3, §4, §5, §6, §7, §8

Structure (SMILES)	IC50 [1]	substrate protein remaining % [2]	substrate protein remaining % [3]	substrate protein remaining % [4]	substrate protein remaining % [5]
CC1(C)CCC(C(=O)N2CCC(Oc3ccc4c(c3)CN(C3CCC(=O)NC3=O)C4=O)CC2)=C(c2ccc(Cl)cc2)C1 (centres unmarked) [GT-06192, 3-(5-((1-(4′-chloro-5,5-dimethyl-3,4,5,6-tetrahydro-[1,1′-biphenyl]-2-carbonyl)piperidin-4-yl)oxy)-1-oxoisoindolin-2-yl)piperidine-2,6-dione]	500 to 1000 nM	A (0%≤ substrate protein remaining % ≤80%)	A (0%≤ substrate protein remaining % ≤80%)		
O=C1CCC(N2Cc3cc(OC4CCN(Cc5ccccc5-c5ccc(Cl)cc5)CC4)ccc3C2=O)C(=O)N1 (centres unmarked) [GT-06193, 3-(5-((1-((4′-chloro-[1,1′-biphenyl]-2-yl)methyl)piperidin-4-yl)oxy)-1-oxoisoindolin-2-yl)piperidine-2,6-dione]	1000 to 1900 nM	A (0%≤ substrate protein remaining % ≤80%)	A (0%≤ substrate protein remaining % ≤80%)	A (0%≤ substrate protein remaining % ≤80%)	
O=C1CCC(N2Cc3cc(SC4CN(CC5=C(c6ccc(F)cc6)CCCC5)C4)ccc3C2=O)C(=O)N1 (centres unmarked) [GT-06301, 3-(5-((1-((4′-fluoro-3,4,5,6-tetrahydro-[1,1′-biphenyl]-2-yl)methyl)azetidin-3-yl)thio)-1-oxoisoindolin-2-yl)piperidine-2,6-dione]	< 500 nM	A (0%≤ substrate protein remaining % ≤80%)	A (0%≤ substrate protein remaining % ≤80%)	A (0%≤ substrate protein remaining % ≤80%)	
CC1(C)CC(c2ccc(Cl)cc2)=C(CN2CC(Oc3ccc4c(c3)CN(C3CCC(=O)NC3=O)C4=O)C2)CO1 (centres unmarked) [GT-06561, 3-(5-((1-((4-(4-chlorophenyl)-6,6-dimethyl-5,6-dihydro-2H-pyran-3-yl)methyl)azetidin-3-yl)oxy)-1-oxoisoindolin-2-yl)piperidine-2,6-dione]	< 500 nM	A (0%≤ substrate protein remaining % ≤80%)	A (0%≤ substrate protein remaining % ≤80%)		
CC1(C)CCC(CN2CCCC(Sc3ccc4c(c3)CN(C3CCC(=O)NC3=O)C4=O)CC2)=C(c2ccc(Cl)cc2)C1 (centres unmarked) [GT-06641, 3-(5-((1-((4′-chloro-5,5-dimethyl-3,4,5,6-tetrahydro-[1,1′-biphenyl]-2-yl)methyl)azepan-4-yl)thio)-1-oxoisoindolin-2-yl)piperidine-2,6-dione]	1000 to 1900 nM	A (0%≤ substrate protein remaining % ≤80%)			
CC1(C)CCC(C(=O)N2CCCC(Sc3ccc4c(c3)CN(C3CCC(=O)NC3=O)C4=O)CC2)=C(c2ccc(Cl)cc2)C1 (centres unmarked) [GT-06642, 3-(5-((1-(4′-chloro-5,5-dimethyl-3,4,5,6-tetrahydro-[1,1′-biphenyl]-2-carbonyl)azepan-4-yl)thio)-1-oxoisoindolin-2-yl)piperidine-2,6-dione]	1000 to 1900 nM	A (0%≤ substrate protein remaining % ≤80%)		A (0%≤ substrate protein remaining % ≤80%)	
O=C1CCC(N2Cc3cc(SC4CCCN(Cc5ccccc5-c5ccc(Cl)cc5)CC4)ccc3C2=O)C(=O)N1 (centres unmarked) [GT-06643, 3-(5-((1-((4′-chloro-[1,1′-biphenyl]-2-yl)methyl)azepan-4-yl)thio)-1-oxoisoindolin-2-yl)piperidine-2,6-dione]	1000 to 1900 nM	A (0%≤ substrate protein remaining % ≤80%)	A (0%≤ substrate protein remaining % ≤80%)		
O=C1CCC(N2Cc3cc(OC4CN(C(c5ccccc5F)c5ccccc5F)C4)ccc3C2=O)C(=O)N1 (centres unmarked) [GT-06759, 3-(5-((1-(bis(2-fluorophenyl)methyl)azetidin-3-yl)oxy)-1-oxoisoindolin-2-yl)piperidine-2,6-dione]	< 500 nM	A (0%≤ substrate protein remaining % ≤80%)		A (0%≤ substrate protein remaining % ≤80%)	
CC1(C)CCC(CN2CC3CC(Sc4ccc5c(c4)CN(C4CCC(=O)NC4=O)C5=O)CC3C2)=C(c2ccc(Cl)cc2)C1 (centres unmarked) [GT-06813, 3-(5-((2-((4′-chloro-5,5-dimethyl-3,4,5,6-tetrahydro-[1,1′-biphenyl]-2-yl)methyl)octahydro-cyclopenta[c]pyrrol-5-yl)thio)-1-oxoisoindolin-2-yl)piperidine-2,6-dione]	1000 to 1900 nM	A (0%≤ substrate protein remaining % ≤80%)	A (0%≤ substrate protein remaining % ≤80%)	A (0%≤ substrate protein remaining % ≤80%)	
O=C1CCC(N2Cc3cc(OC4CCN(C(=O)c5ccccc5-c5ccc(Cl)cc5)C4)ccc3C2=O)C(=O)N1 (centres unmarked) [GT-06818, 3-(5-((1-(4′-chloro-[1,1′-biphenyl]-2-carbonyl)pyrrolidin-3-yl)oxy)-1-oxoisoindolin-2-yl)piperidine-2,6-dione]	< 500 nM		A (0%≤ substrate protein remaining % ≤80%)	A (0%≤ substrate protein remaining % ≤80%)	A (0%≤ substrate protein remaining % ≤80%)
O=C1CCC(N2Cc3cc(SC4CC5CN(Cc6ccccc6-c6ccc(Cl)cc6)CC5C4)ccc3C2=O)C(=O)N1 (centres unmarked) [GT-06914, 3-(5-((2-((4′-chloro-[1,1′-biphenyl]-2-yl)methyl)octahydrocyclopenta[c]pyrrol-5-yl)thio)-1-oxoisoindolin-2-yl)piperidine-2,6-dione]	1000 to 1900 nM	A (0%≤ substrate protein remaining % ≤80%)	A (0%≤ substrate protein remaining % ≤80%)		
O=C1CCC(N2Cc3cc(SC4CC5(CCNCC5)C4)ccc3C2=O)C(=O)N1 (centres unmarked) [GT-06997, 3-(5-((7-azaspiro[3.5]nonan-2-yl)thio)-1-oxoisoindolin-2-yl)piperidine-2,6-dione]	500 to 1000 nM	A (0%≤ substrate protein remaining % ≤80%)		A (0%≤ substrate protein remaining % ≤80%)	
O=C1CCC(N2Cc3cc(OC4CC5(CCNCC5)C4)ccc3C2=O)C(=O)N1 (centres unmarked) [GT-07005, 3-(5-((7-azaspiro[3.5]nonan-2-yl)oxy)-1-oxoisoindolin-2-yl)piperidine-2,6-dione]	1000 to 1900 nM	A (0%≤ substrate protein remaining % ≤80%)			
O=C1CCC(N2Cc3cc(SC4C[C@@H]5CN(C(=O)c6ccccc6-c6ccc(Cl)cc6)C[C@@H]5C4)ccc3C2=O)C(=O)N1 (stereo partly drawn) [GT-07024, 3-(5-(((3aR,6aS)-2-(4′-chloro-[1,1′-biphenyl]-2-carbonyl)octahydro-cyclopenta[c]pyrrol-5-yl)thio)-1-oxoisoindolin-2-yl)piperidine-2,6-dione]	< 500 nM	A (0%≤ substrate protein remaining % ≤80%)	A (0%≤ substrate protein remaining % ≤80%)		
